Source: ChEMBL document CHEMBL3991601, “The target landscape of clinical kinase drugs” (Science, 2017)
Activity calls are given as the source filed them. For most assays here, no stated cut-off is given here; in the data, actives have a measured Kd and inactives only a lower limit.

Assays:
Glycine--tRNA ligase = molecular target: T1, Glycine--tRNA ligase (Homo sapiens, UniProt P41250)
T1 sequence (P41250 whole entry): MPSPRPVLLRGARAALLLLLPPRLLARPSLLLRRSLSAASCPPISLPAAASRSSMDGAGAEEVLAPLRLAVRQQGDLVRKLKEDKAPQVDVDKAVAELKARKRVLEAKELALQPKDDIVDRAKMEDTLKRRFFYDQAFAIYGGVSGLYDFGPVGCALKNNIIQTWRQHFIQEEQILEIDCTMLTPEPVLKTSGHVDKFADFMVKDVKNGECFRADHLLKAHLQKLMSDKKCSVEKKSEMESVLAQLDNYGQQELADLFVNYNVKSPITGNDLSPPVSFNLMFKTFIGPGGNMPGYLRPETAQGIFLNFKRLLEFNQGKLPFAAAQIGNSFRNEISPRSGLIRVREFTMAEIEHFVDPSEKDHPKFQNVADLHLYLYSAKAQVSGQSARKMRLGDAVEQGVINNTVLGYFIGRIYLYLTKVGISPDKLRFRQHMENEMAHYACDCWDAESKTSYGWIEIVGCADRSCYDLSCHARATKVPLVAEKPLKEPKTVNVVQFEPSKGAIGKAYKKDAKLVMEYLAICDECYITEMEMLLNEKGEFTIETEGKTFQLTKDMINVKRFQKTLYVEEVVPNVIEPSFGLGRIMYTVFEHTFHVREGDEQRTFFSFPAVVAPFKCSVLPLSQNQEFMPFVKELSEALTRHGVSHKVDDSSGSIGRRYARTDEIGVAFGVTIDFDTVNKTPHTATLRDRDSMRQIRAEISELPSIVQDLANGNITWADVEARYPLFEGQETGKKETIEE

[1] = molecular target: T2, Inhibitor of nuclear factor kappa-B kinase subunit epsilon (Homo sapiens, UniProt Q14164)
T2 sequence (Q14164 whole entry): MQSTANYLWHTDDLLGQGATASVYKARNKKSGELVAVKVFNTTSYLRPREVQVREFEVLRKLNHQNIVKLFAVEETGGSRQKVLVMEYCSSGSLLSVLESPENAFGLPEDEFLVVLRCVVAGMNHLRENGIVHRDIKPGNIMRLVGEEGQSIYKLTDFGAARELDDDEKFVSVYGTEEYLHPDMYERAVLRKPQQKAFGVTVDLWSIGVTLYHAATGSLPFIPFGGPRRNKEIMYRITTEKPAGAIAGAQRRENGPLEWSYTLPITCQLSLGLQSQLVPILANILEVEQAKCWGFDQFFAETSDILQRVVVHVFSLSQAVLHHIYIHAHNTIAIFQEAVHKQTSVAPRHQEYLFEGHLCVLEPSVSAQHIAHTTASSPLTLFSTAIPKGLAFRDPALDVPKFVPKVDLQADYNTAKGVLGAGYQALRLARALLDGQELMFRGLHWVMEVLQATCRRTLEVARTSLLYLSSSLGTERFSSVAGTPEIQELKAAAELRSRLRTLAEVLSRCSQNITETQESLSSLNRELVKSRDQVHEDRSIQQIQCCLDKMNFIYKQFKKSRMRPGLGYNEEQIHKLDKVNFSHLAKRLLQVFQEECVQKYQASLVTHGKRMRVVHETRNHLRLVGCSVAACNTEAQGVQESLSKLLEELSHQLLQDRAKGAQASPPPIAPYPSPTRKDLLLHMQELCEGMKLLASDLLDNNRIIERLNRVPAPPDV

[2] = molecular target: Tyrosine-protein kinase JAK1 (Homo sapiens, UniProt P23458)
Tyrosine-protein kinase JAK1, sequence (P23458 whole entry): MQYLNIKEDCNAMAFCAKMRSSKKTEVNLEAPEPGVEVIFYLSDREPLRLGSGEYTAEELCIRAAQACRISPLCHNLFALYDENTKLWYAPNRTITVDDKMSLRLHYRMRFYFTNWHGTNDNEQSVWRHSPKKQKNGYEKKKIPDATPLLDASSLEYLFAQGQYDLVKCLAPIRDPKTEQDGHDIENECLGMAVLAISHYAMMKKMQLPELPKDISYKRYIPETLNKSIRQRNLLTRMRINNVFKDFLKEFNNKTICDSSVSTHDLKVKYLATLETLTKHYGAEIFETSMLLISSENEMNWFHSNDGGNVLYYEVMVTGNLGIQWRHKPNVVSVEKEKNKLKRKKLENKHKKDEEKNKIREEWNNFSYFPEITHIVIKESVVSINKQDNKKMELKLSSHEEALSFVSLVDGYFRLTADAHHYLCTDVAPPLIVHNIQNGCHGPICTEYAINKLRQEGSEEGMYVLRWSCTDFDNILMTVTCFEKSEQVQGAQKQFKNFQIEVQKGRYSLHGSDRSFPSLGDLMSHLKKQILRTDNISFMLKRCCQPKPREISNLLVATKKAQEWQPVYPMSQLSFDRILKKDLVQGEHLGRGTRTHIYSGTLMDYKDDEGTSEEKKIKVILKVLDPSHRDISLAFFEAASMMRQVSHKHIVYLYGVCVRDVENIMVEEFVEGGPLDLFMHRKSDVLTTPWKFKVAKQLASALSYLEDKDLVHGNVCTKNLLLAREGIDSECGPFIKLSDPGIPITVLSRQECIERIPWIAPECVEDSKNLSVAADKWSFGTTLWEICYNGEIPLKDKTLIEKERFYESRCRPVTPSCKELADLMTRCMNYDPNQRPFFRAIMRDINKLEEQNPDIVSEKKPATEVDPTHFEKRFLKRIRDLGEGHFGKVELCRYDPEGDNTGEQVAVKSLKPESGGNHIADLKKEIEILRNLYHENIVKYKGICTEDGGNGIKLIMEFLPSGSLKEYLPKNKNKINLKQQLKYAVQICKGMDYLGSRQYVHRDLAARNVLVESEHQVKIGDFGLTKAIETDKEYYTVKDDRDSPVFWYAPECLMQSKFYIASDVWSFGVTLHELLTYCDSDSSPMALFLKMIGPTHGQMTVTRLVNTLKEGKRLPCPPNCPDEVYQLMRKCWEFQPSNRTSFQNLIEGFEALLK

[3] = molecular target: T3, Dual specificity mitogen-activated protein kinase kinase 6 (Homo sapiens, UniProt P52564)
T3 sequence (P52564 whole entry): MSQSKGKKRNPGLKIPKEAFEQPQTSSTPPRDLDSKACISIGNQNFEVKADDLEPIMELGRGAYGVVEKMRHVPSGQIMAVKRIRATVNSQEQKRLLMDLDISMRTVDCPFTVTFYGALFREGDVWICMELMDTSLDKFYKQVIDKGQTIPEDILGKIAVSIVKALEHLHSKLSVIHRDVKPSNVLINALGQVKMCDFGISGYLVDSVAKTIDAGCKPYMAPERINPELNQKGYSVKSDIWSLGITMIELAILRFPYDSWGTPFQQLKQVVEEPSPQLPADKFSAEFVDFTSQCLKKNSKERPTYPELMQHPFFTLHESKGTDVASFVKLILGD

[4] = molecular target: T4, Serine/threonine-protein kinase NLK (Homo sapiens, UniProt Q9UBE8)
T4 sequence (Q9UBE8 whole entry): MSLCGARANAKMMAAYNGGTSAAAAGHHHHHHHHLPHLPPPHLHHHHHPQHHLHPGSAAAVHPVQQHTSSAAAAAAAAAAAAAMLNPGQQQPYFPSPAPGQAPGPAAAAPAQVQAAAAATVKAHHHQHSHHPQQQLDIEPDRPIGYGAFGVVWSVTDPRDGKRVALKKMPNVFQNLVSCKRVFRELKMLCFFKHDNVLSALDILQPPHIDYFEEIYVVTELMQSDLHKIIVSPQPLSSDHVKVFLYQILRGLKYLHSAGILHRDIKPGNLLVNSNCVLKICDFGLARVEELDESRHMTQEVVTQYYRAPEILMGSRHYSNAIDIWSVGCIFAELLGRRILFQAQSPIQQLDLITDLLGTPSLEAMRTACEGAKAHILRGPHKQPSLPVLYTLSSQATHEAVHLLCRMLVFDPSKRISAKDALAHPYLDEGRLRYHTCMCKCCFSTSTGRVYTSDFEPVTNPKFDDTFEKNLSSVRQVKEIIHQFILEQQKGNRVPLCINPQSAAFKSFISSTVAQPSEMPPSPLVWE

[5] = molecular target: Serine/threonine-protein kinase SIK2 (Homo sapiens, UniProt Q9H0K1)
Serine/threonine-protein kinase SIK2, sequence (Q9H0K1 whole entry): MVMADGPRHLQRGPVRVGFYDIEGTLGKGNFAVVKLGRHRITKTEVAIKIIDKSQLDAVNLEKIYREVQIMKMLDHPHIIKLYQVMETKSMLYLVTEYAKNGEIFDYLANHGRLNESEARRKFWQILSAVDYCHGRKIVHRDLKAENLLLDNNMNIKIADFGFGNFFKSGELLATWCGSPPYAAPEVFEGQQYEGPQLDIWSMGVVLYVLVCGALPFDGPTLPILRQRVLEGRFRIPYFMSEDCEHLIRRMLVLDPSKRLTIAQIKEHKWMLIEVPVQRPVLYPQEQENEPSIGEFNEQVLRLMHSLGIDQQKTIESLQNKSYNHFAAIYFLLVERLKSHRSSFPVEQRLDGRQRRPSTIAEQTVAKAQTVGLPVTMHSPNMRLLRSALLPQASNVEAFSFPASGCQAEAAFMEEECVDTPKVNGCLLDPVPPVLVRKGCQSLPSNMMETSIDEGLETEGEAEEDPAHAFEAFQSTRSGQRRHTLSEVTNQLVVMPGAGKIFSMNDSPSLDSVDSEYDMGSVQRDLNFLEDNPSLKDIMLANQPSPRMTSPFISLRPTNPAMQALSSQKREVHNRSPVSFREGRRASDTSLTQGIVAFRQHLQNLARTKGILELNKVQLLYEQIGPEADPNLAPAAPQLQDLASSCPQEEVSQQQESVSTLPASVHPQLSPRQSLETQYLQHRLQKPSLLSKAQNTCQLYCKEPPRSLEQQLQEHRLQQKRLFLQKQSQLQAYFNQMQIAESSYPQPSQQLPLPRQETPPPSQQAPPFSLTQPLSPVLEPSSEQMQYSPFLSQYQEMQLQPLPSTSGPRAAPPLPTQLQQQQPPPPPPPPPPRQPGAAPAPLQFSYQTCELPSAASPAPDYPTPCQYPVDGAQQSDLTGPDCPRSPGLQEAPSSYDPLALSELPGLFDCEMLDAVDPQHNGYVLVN

[6] = molecular target: T5, Uncharacterized protein FLJ45252 (Homo sapiens, UniProt Q6ZSR9); conditions: read-out: Kd apparent; k-562, colo 205, sk-n-be(2) and mv-4-11
T5 sequence (Q6ZSR9 whole entry): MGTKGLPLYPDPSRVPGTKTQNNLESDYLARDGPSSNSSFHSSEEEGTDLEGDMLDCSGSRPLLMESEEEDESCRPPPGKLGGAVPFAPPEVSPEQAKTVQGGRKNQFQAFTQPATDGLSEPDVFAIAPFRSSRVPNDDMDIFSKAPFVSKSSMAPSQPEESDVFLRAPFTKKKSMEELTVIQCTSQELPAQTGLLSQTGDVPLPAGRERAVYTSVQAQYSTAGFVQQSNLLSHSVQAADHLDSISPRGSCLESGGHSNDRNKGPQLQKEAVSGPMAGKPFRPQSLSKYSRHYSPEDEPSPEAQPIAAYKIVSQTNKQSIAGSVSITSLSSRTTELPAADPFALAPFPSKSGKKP

[7] = molecular target: Protein kinase C delta type (Homo sapiens, UniProt Q05655)
Protein kinase C delta type, sequence (Q05655 whole entry): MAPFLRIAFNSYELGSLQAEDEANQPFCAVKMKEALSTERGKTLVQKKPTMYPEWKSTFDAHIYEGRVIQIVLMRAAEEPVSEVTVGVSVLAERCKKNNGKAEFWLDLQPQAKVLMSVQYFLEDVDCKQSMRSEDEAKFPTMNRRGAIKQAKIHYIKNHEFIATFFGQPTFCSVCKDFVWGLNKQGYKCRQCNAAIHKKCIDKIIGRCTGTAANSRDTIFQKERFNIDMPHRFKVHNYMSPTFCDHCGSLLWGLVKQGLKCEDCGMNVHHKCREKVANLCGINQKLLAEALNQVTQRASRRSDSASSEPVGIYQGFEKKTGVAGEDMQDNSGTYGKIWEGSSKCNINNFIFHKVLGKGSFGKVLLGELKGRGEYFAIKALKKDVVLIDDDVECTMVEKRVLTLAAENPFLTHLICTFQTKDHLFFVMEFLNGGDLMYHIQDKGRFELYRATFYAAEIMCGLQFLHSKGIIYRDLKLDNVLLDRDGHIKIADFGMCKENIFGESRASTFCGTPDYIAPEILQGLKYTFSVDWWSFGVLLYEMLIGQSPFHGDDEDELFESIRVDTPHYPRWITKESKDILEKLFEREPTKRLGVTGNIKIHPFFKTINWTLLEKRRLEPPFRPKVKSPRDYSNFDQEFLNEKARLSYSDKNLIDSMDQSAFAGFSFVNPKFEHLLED

[8] = molecular target: Cyclin-dependent kinase 5 (Homo sapiens, UniProt Q00535)
Cyclin-dependent kinase 5, sequence (Q00535 whole entry): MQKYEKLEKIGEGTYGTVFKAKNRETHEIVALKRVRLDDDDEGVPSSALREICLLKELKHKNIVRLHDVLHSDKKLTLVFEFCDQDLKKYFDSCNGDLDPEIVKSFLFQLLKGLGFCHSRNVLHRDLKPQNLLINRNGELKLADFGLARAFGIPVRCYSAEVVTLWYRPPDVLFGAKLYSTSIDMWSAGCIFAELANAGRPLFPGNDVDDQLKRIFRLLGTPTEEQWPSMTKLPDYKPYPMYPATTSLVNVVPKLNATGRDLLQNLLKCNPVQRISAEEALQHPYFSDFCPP

Row | Compound | Kd (Glycine--tRNA ligase) | Kd [1] | Kd [2] | Kd [3] | Kd [4] | Kd [5] | Kd [6] | Kd [7] | Kd [8]
1 | C[C@]1(O)C[C@@H](c2nc(-c3ccc4ccc(-c5ccccc5)nc4c3)c3c(N)nccn32)C1 [LINSITINIB] | > 30 µM (inactive) | > 30 µM (inactive) | > 30 µM (inactive) | > 30 µM (inactive) | > 30 µM (inactive) | > 30 µM (inactive) | > 30 µM (inactive) |  | 
2 | CN(c1ncccc1CNc1nc(Nc2ccc3c(c2)CC(=O)N3)ncc1C(F)(F)F)S(C)(=O)=O [PF-00562271] | > 30 µM (inactive) |  | > 30 µM (inactive) |  | > 30 µM (inactive) |  | > 30 µM (inactive) |  | 
3 | Cn1c(=O)n(-c2ccc(C(C)(C)C#N)cc2)c2c3cc(-c4cnc5ccccc5c4)ccc3ncc21 [DACTOLISIB] | > 30 µM (inactive) |  | > 30 µM (inactive) | > 30 µM (inactive) | > 30 µM (inactive) | > 30 µM (inactive) | > 30 µM (inactive) | > 30 µM (inactive) | 
4 | CCOc1ccn(-c2ccc(F)cc2)c(=O)c1C(=O)Nc1ccc(Oc2ccnc(N)c2Cl)c(F)c1 [BMS-777607] | > 30 µM (inactive) |  | > 30 µM (inactive) | > 30 µM (inactive) | > 30 µM (inactive) | > 30 µM (inactive) |  | > 30 µM (inactive) | > 30 µM (inactive)
5 | CC1(COc2ccc3c(c2)ncn3-c2ccc3cccc(N4CCC(N)CC4)c3n2)COC1 [CRENOLANIB] |  | > 30 µM (inactive) | > 30 µM (inactive) | > 30 µM (inactive) | > 30 µM (inactive) |  | > 30 µM (inactive) |  | 
6 | Cn1cnc2c(F)c(Nc3ccc(Br)cc3Cl)c(C(=O)NOCCO)cc21 [SELUMETINIB] | > 30 µM (inactive) |  |  |  |  |  | 0.807 µM (active) |  | 
7 | O=S(=O)(c1cccc2cnccc12)N1CCCNCC1 [FASUDIL] | > 30 µM (inactive) |  | > 30 µM (inactive) | > 30 µM (inactive) | > 30 µM (inactive) | > 30 µM (inactive) | > 30 µM (inactive) |  | 
8 | COc1cc2c(N3CCN(C(=O)Nc4ccc(OC(C)C)cc4)CC3)ncnc2cc1OCCCN1CCCCC1 [TANDUTINIB] | > 30 µM (inactive) |  |  |  |  |  | > 30 µM (inactive) |  | 
9 | COc1cc2c(Oc3ccc4[nH]c(C)cc4c3F)ncnc2cc1OCCCN1CCCC1 [CEDIRANIB] | > 30 µM (inactive) |  |  |  |  |  |  |  | 
10 | C=CC(=O)Nc1cc(Nc2nccc(-c3cn(C)c4ccccc34)n2)c(OC)cc1N(C)CCN(C)C [OSIMERTINIB] | > 30 µM (inactive) | > 30 µM (inactive) | > 30 µM (inactive) | > 30 µM (inactive) | > 30 µM (inactive) | > 30 µM (inactive) |  | > 30 µM (inactive) | > 30 µM (inactive)
11 | CC(C)CC(=O)Nc1[nH]nc2c1CN(C(=O)C1CCN(C)CC1)C2(C)C [PHA-793887] | > 30 µM (inactive) | > 30 µM (inactive) | > 30 µM (inactive) |  |  | > 30 µM (inactive) | > 30 µM (inactive) | > 30 µM (inactive) | 0.135 µM (active)
12 | C=CCn1c(=O)c2cnc(Nc3ccc(N4CCN(C)CC4)cc3)nc2n1-c1cccc(C(C)(C)O)n1 [ADAVOSERTIB] | > 30 µM (inactive) |  | > 30 µM (inactive) | > 30 µM (inactive) | > 30 µM (inactive) | > 30 µM (inactive) | > 30 µM (inactive) | > 30 µM (inactive) | 
13 | CC1(C)CNc2cc(NC(=O)c3cccnc3NCc3ccncc3)ccc21 [MOTESANIB] | > 30 µM (inactive) |  |  |  |  |  | > 30 µM (inactive) |  | 
14 | CN(C)C/C=C/C(=O)Nc1cc2c(Nc3ccc(F)c(Cl)c3)ncnc2cc1O[C@H]1CCOC1 [AFATINIB] | > 30 µM (inactive) |  |  |  |  |  | > 30 µM (inactive) |  | 
15 | Cn1cc(-c2[nH]c3cc(NC(=O)[C@H](N)C4CCCCC4)cc4c3c2C=NNC4=O)cn1 | > 30 µM (inactive) | > 30 µM (inactive) |  | > 30 µM (inactive) | > 30 µM (inactive) | 0.047 µM (active) | 0.002 µM (active) | > 30 µM (inactive) | > 30 µM (inactive)
16 | NC(=O)c1ccc(N(C(N)=O)c2c(F)cccc2F)nc1-c1ccc(F)cc1F [VX-702] | > 30 µM (inactive) | > 30 µM (inactive) | > 30 µM (inactive) | > 30 µM (inactive) |  | > 30 µM (inactive) | > 30 µM (inactive) | > 30 µM (inactive) | > 30 µM (inactive)
17 | C[C@@]1(C(=O)Nc2ccc(F)nc2)CCCN1c1nc(Nc2cc(C3CC3)n[nH]2)c2cccn2n1 [BMS-754807] | > 30 µM (inactive) |  |  |  |  |  | > 30 µM (inactive) |  | 
18 | CCN1CCN(Cc2ccc(Nc3ncc(F)c(-c4cc(F)c5nc(C)n(C(C)C)c5c4)n3)nc2)CC1 [ABEMACICLIB] | > 30 µM (inactive) | > 30 µM (inactive) | > 30 µM (inactive) | > 30 µM (inactive) | > 30 µM (inactive) | > 30 µM (inactive) | 0.088 µM (active) | 0.795 µM (active) | 
19 | N#CCNC(=O)c1ccc(-c2ccnc(Nc3ccc(N4CCOCC4)cc3)n2)cc1 [MOMELOTINIB] | > 30 µM (inactive) | 0.2 µM (active) |  | > 30 µM (inactive) | > 30 µM (inactive) | 0.79 µM (active) |  | > 30 µM (inactive) | > 30 µM (inactive)
20 | CCN(CCCOc1ccc2c(Nc3cc(CC(=O)Nc4cccc(F)c4)n[nH]3)ncnc2c1)CCOP(=O)(O)O [BARASERTIB] | > 30 µM (inactive) |  | > 30 µM (inactive) | > 30 µM (inactive) | > 30 µM (inactive) |  | > 30 µM (inactive) | > 30 µM (inactive) | 
